Data as given in ChEMBL document CHEMBL1201862, “PubChem BioAssay data set” (2004).
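Each compound was tested at five concentrations against cells in 96-well plates for 48 hours. GI50 = concentration required for 50% inhibition of growth.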 The source made the active and inactive calls. Rule as the data show it: active = GI50 up to about 1.1 µM and inactive = higher.

Tests used:
Experiment in all cases: NCI anticancer screen, dose series, 48 h
[1] = test system: HOP-62
[2] = test system: UACC-257
[3] = test system: OVCAR-4
[4] = test system: RPMI-8226
[5] = test system: U-251
[6] = test system: CCRF-CEM
[7] = test system: LOX IMVI
[8] = test system: A498
[9] = test system: M14
[10] = test system: MCF7
[11] = test system: MOLT-4
[12] = test system: IGROV-1
[13] = test system: PC-3
[14] = test system: NCI-H522
[15] = test system: UO-31
[16] = test system: A549
[17] = test system: SK-MEL-28
[18] = test system: SR
[19] = test system: SF-268
[20] = test system: HL-60
[21] = test system: NCI-H23
[22] = test system: MDA-N
[23] = test system: T47D
[24] = test system: DU-145
[25] = test system: HCT-116
[26] = test system: COLO 205
[27] = test system: SF-539
[28] = test system: HCT-15
[29] = test system: MDA-MB-435
[30] = test system: NCI-H460
[31] = test system: SF-295
[32] = test system: SNB-75
[33] = test system: SNB-19
[34] = test system: BT-549
[35] = test system: EKVX
[36] = test system: OVCAR-3
[37] = test system: K562
[38] = test system: HT-29
[39] = test system: UACC-62
[40] = test system: CAKI-1
[41] = test system: SK-MEL-2
[42] = test system: TK-10
[43] = test system: SK-MEL-5
[44] = test system: Hs-578T
[45] = test system: ACHN
[46] = test system: Malme-3M
[47] = test system: SW-620
[48] = test system: SN12C
[49] = test system: OVCAR-5
[50] = test system: OVCAR-8
[51] = test system: HOP-92
[52] = test system: SK-OV-3
[53] = test system: HCC 2998
[54] = test system: NCI-H226
[55] = test system: KM12
[56] = test system: RXF 393
[57] = test system: 786-0
[58] = test system: MDA-MB-231
[59] = test system: NCI/ADR-RES

Compound: O=C(Nc1cccc2ccccc12)Nn1cnnc1
- GI50 [1]: > 100 µM (inactive)
- GI50 [2]: > 100 µM (inactive)
- GI50 [3]: > 100 µM (inactive)
- GI50 [4]: > 100 µM (inactive)
- GI50 [5]: > 100 µM (inactive)
- GI50 [6]: > 100 µM (inactive)
- GI50 [7]: > 100 µM (inactive)
- GI50 [8]: > 100 µM (inactive)
- GI50 [9]: > 100 µM (inactive)
- GI50 [10]: > 100 µM (inactive)
- GI50 [11]: > 100 µM (inactive)
- GI50 [12]: > 100 µM (inactive)
- GI50 [13]: > 100 µM (inactive)
- GI50 [14]: > 100 µM (inactive)
- GI50 [15]: > 100 µM (inactive)
- GI50 [16]: > 100 µM (inactive)
- GI50 [17]: > 100 µM (inactive)
- GI50 [18]: > 100 µM (inactive)
- GI50 [19]: > 100 µM (inactive)
- GI50 [20]: > 100 µM (inactive)
- GI50 [21]: > 100 µM (inactive)
- GI50 [22]: > 100 µM (inactive)
- GI50 [23]: > 100 µM (inactive)
- GI50 [24]: > 100 µM (inactive)
- GI50 [25]: > 100 µM (inactive)
- GI50 [26]: > 100 µM (inactive)
- GI50 [27]: > 100 µM (inactive)
- GI50 [28]: > 100 µM
- GI50 [29]: > 100 µM (inactive)
- GI50 [30]: > 100 µM (inactive)
- GI50 [31]: > 100 µM (inactive)
- GI50 [32]: 27.6 µM (inactive)
- GI50 [33]: > 100 µM (inactive)
- GI50 [34]: > 100 µM (inactive)
- GI50 [35]: > 100 µM (inactive)
- GI50 [36]: > 100 µM (inactive)
- GI50 [37]: > 100 µM (inactive)
- GI50 [38]: > 100 µM (inactive)
- GI50 [39]: > 100 µM (inactive)
- GI50 [40]: > 100 µM (inactive)
- GI50 [41]: > 100 µM (inactive)
- GI50 [42]: > 100 µM (inactive)
- GI50 [43]: > 100 µM (inactive)
- GI50 [44]: > 100 µM (inactive)
- GI50 [45]: > 100 µM (inactive)
- GI50 [46]: > 100 µM (inactive)
- GI50 [47]: > 100 µM (inactive)
- GI50 [48]: > 100 µM (inactive)
- GI50 [49]: > 100 µM (inactive)
- GI50 [50]: 19.1 µM (inactive)
- GI50 [51]: > 100 µM (inactive)
- GI50 [52]: > 100 µM (inactive)
- GI50 [53]: > 100 µM (inactive)
- GI50 [54]: > 100 µM (inactive)
- GI50 [55]: > 100 µM (inactive)

Compound: CN1CCN(C(=S)N(C(=O)c2ccc(Cl)cc2)c2ccccc2)CC1
- GI50 [2]: > 100 µM (inactive)
- GI50 [3]: > 100 µM (inactive)
- GI50 [4]: > 100 µM (inactive)
- GI50 [5]: > 100 µM (inactive)
- GI50 [6]: > 10 µM (inactive)
- GI50 [7]: > 100 µM (inactive)
- GI50 [9]: > 100 µM (inactive)
- GI50 [10]: > 100 µM (inactive)
- GI50 [11]: > 100 µM (inactive)
- GI50 [12]: > 100 µM (inactive)
- GI50 [56]: > 100 µM (inactive)
- GI50 [14]: > 100 µM (inactive)
- GI50 [15]: > 100 µM (inactive)
- GI50 [57]: > 100 µM (inactive)
- GI50 [16]: > 100 µM (inactive)
- GI50 [17]: > 100 µM (inactive)
- GI50 [18]: > 100 µM (inactive)
- GI50 [19]: > 100 µM (inactive)
- GI50 [20]: > 100 µM (inactive)
- GI50 [21]: > 100 µM (inactive)
- GI50 [22]: > 100 µM (inactive)
- GI50 [23]: > 100 µM (inactive)
- GI50 [24]: > 100 µM (inactive)
- GI50 [26]: > 100 µM (inactive)
- GI50 [28]: > 100 µM
- GI50 [29]: > 100 µM (inactive)
- GI50 [30]: > 100 µM (inactive)
- GI50 [31]: > 100 µM (inactive)
- GI50 [32]: 41.8 µM (inactive)
- GI50 [33]: > 100 µM (inactive)
- GI50 [34]: > 100 µM (inactive)
- GI50 [36]: > 100 µM (inactive)
- GI50 [37]: > 100 µM (inactive)
- GI50 [38]: > 100 µM (inactive)
- GI50 [39]: > 100 µM (inactive)
- GI50 [41]: > 100 µM (inactive)
- GI50 [58]: > 100 µM (inactive)
- GI50 [42]: > 100 µM (inactive)
- GI50 [43]: > 100 µM (inactive)
- GI50 [44]: 34.5 µM (inactive)
- GI50 [45]: > 100 µM (inactive)
- GI50 [46]: > 100 µM (inactive)
- GI50 [47]: > 100 µM (inactive)
- GI50 [48]: > 100 µM (inactive)
- GI50 [49]: > 100 µM (inactive)
- GI50 [50]: > 100 µM (inactive)
- GI50 [51]: > 100 µM (inactive)
- GI50 [53]: > 100 µM (inactive)
- GI50 [54]: > 100 µM (inactive)
- GI50 [55]: > 100 µM (inactive)

Compound: COC(=O)NC1(NC(=O)OC)NC(=O)c2ccccc2N1
- GI50 [1]: > 100 µM (inactive)
- GI50 [2]: > 100 µM (inactive)
- GI50 [3]: > 100 µM (inactive)
- GI50 [6]: > 100 µM (inactive)
- GI50 [8]: > 100 µM (inactive)
- GI50 [9]: > 100 µM (inactive)
- GI50 [10]: > 100 µM (inactive)
- GI50 [11]: > 100 µM (inactive)
- GI50 [12]: > 100 µM (inactive)
- GI50 [13]: > 100 µM (inactive)
- GI50 [14]: > 100 µM (inactive)
- GI50 [15]: > 100 µM (inactive)
- GI50 [57]: > 100 µM (inactive)
- GI50 [59]: > 100 µM (inactive)
- GI50 [16]: < 0.01 µM (active)
- GI50 [17]: > 100 µM (inactive)
- GI50 [18]: > 100 µM (inactive)
- GI50 [19]: > 100 µM (inactive)
- GI50 [20]: > 100 µM (inactive)
- GI50 [21]: > 100 µM (inactive)
- GI50 [22]: 64.1 µM (inactive)
- GI50 [23]: > 100 µM (inactive)
- GI50 [24]: > 100 µM (inactive)
- GI50 [25]: > 100 µM (inactive)
- GI50 [26]: > 100 µM (inactive)
- GI50 [27]: > 100 µM (inactive)
- GI50 [28]: 63.5 µM
- GI50 [30]: > 100 µM (inactive)
- GI50 [31]: 36.5 µM (inactive)
- GI50 [32]: 36 µM (inactive)
- GI50 [33]: > 100 µM (inactive)
- GI50 [34]: > 100 µM (inactive)
- GI50 [35]: > 100 µM (inactive)
- GI50 [36]: > 100 µM (inactive)
- GI50 [37]: > 100 µM (inactive)
- GI50 [38]: > 100 µM (inactive)
- GI50 [39]: > 100 µM (inactive)
- GI50 [40]: > 100 µM (inactive)
- GI50 [41]: 0.0145 µM (active)
- GI50 [58]: > 100 µM (inactive)
- GI50 [42]: 96.2 µM (inactive)
- GI50 [43]: > 100 µM (inactive)
- GI50 [44]: > 100 µM (inactive)
- GI50 [45]: > 100 µM (inactive)
- GI50 [46]: > 100 µM (inactive)
- GI50 [47]: > 100 µM (inactive)
- GI50 [48]: > 100 µM (inactive)
- GI50 [49]: > 100 µM (inactive)
- GI50 [50]: > 100 µM (inactive)
- GI50 [52]: > 100 µM (inactive)
- GI50 [53]: > 100 µM (inactive)
- GI50 [54]: > 100 µM (inactive)
- GI50 [55]: 80.4 µM (inactive)
